Laboratory results: patent publication EP0210342A2, “Medicament containing pyridinones having an antithrombotic activity” (Dr. Karl Thomae GmbH, priority 1985, dated 1987)

Columns and labels:
Thrombusbildung = test: Stenosis-induced spontaneous coronary thrombus formation in anaesthetised dogs (shake loose, Folts); assay type: in vivo, Hunde; conditions: for antithrombotische Wirkung: 1 mg/kg; for Verminderung der Häufigkeit der Spontanverschlüsse: 1 mg/kg i.v.
[1] = Acute toxicity in mice (LD50, 14 days observation); set-up: species or system Mäusen; conditions: mouse, in vivo, observation 14 days
Source text: Die akute Toxizität der zu untersuchenden Substanzen wurde an Mäusen (Beobachtungszeit: 14 Tage) nach oraler bzw. intravenöser Gabe bestimmt. Es wurde die LD₅₀ aus dem Prozentsatz der Tiere berechnet, die nach verschiedenen Dosen innerhalb der Beobachtungszeit verstarben: […]

SMILES: CC(C)NCC(O)COc1cccc2ccccc12 (stereo not drawn) [Propranolol, reference compound]
- antithrombotische Wirkung (Thrombusbildung): nicht antithrombotisch

SMILES: COc1ccc2nc(-c3ccc(OCC(O)CNC(C)(C)C)cc3)n(C)c(=O)c2c1 (single isomer, unassigned; (-)) [Verbindung C, (-)-2-2[4-(2-Hydroxy-3-tert.butylamino-propoxy)-phenyl]-3-methyl-6-methoxy-3,4-dihydro-chinazolin-4-on]
- Verminderung der Häufigkeit der Spontanverschlüsse (Thrombusbildung; 30th to 60th minute after substance): 73%
- Verminderung der Häufigkeit der Spontanverschlüsse (Thrombusbildung; first 30 min after substance): 55%

SMILES: CC(C)NCC(O)COc1ccc(CC(N)=O)cc1 (stereo not drawn) [Atenolol, reference compound]
- antithrombotische Wirkung (Thrombusbildung): nicht antithrombotisch

SMILES: COc1ccc2nc(-c3ccc(OCC(O)CNC(C)(C)C)cc3)n(C)c(=O)c2c1 (stereo not drawn) [Verbindung B, 2-[4-(2-Hydroxy-3-tert.butylamino-propoxy)-phenyl]-3-methyl-6-methoxy-3,4-dihydro-chinazolin-4-on]
- LD50 at 336 h ([1]; iv): 75 mg/kg
- LD50 at 336 h ([1]; po): 750 mg/kg
